{"source": "patent EP0471358B1", "about": "“Fluoroethylcamptothecin derivatives” (KYORIN PHARMACEUTICAL CO., LTD., priority 1990, dated 1992)"}
{"test_system": "P388 leukemia", "assay": "Antineoplastic effect for P388 leukemia mice (survival, T/C)", "type": "in vivo, CDF₁ mice", "details": "Total dose 20 mg/kg; dosed to the abdominal cavity 1, 5 and 9 days after transplantation of 10⁶ P388 cells; average survival days of dosed vs non-dosed group", "protocol": "(§1) P388 cells of 10⁶ in number were transplanted into abdominal cavity of CDF₁ mice of approximately 9 week-age (female, Non-dosed group: 5 - 8 mice, group dosed with the test compound: 1 - 5 mice). One, five, and nine days after the transplantation, the test compound which was dissolved or suspended in 1% Tween 80 (Kanto Chemical Inc.)/physiological saline was dosed to the abdominal cavity. The antineoplastic effect of the test compounds are shown by the T/C value (%) derived from the formula below. (T)/(C)(%) =(Average survival days of dosed group)/(Average survival days of non-dosed group)x 100 [formula]", "units": {"T/C (%)": "%"}}
{"smiles": "CCc1c2c(nc3ccc(C)cc13)-c1cc3c(c(=O)n1C2)COC(=O)C3(O)CCF", "note": "(stereo not shown) [Example 11, 11-ethyl-4-(2-fluoroethyl)-4-hydroxy-9-methyl-1H-pyrano[3',4':6,7]indolizino[1,2-b]quinoline-3,14(4H,12H)-dione]", "T/C (%)": 483}
{"smiles": "CC[C@@]1(O)C(=O)OCc2c1cc1n(c2=O)Cc2cc3ccccc3nc2-1", "note": "[Camptothecin]", "T/C (%)": 218}
{"smiles": "O=C1OCc2c(cc3n(c2=O)Cc2c-3nc3ccc(Cl)c4c3c2CCC4)C1(O)CCF", "note": "(stereo not shown) [Example 24, 4-chloro-9-(2-fluoroethyl)-2,3-dihydro-9-hydroxy-1H,12H-benzo[d,e]pyrano[3',4':6,7]indolizino[1,2-b]quinoline-10,13(9H,15H)-dione]", "T/C (%)": 385}
{"smiles": "CCc1c2c(nc3ccc([N+](=O)[O-])cc13)-c1cc3c(c(=O)n1C2)COC(=O)C3(O)CCF", "note": "(stereo not shown) [Example 16, 11-ethyl-4-(2-fluoroethyl)-4-hydroxy-9-nitro-1H-pyrano[3',4':6,7]indolizino[1,2-b]quinoline-3,14(4H,12H)-dione]", "T/C (%)": 345}
{"test_system": "P388 leukemia", "assay": "Antineoplastic effect for P388 leukemia mice (survival, T/C)", "type": "in vivo, CDF₁ mice", "details": "Total dose 30 mg/kg; dosed to the abdominal cavity 1, 5 and 9 days after transplantation of 10⁶ P388 cells; average survival days of dosed vs non-dosed group", "protocol": "as §1", "units": {"T/C (%)": "%"}}
{"smiles": "CCc1ccc2nc3c(c(CC)c2c1)Cn1c-3cc2c(c1=O)COC(=O)C2(O)CCF", "note": "(stereo not shown) [Example 25, 9,11-diethyl-4-(2-fluoroethyl)-4-hydroxy-1H-pyrano[3',4':6,7]indolizino[1,2-b]quinoline-3,14(4H,12H)-dione]", "T/C (%)": 345}
{"smiles": "CCOc1ccc2nc3c(c(CC)c2c1)Cn1c-3cc2c(c1=O)COC(=O)C2(O)CCF", "note": "(stereo not shown) [Example 26, 9-ethoxy-11-ethyl-4-[2-fluoroethyl)-4-hydroxy-1H-pyrano[3',4':6,7]indolizino[1,2-b]quinoline-3,14(4H,12H)-dione]", "T/C (%)": 583}
{"smiles": "Cc1c2c(nc3ccccc13)-c1cc3c(c(=O)n1C2)COC(=O)C3(O)CCF", "note": "(stereo not shown) [Example 41, 4-[2-fluoroethyl)-4-hydroxy-11-methyl-1H-pyrano[3',4':6,7]indolizino[1,2-b]quinoline-3,14(4H,12H)-dione]", "T/C (%)": 386}
